Reference: paper PMC11267547, “Advancing drug discovery through assay development: a survey of tool compounds within the human solute carrier superfamily” (Frontiers in Pharmacology, 2024)
Read-outs that look alike come from different tables or passages of the source.

Tests used:
SLC22A3 (OCT3) = molecular target: T1, SLC22A3 (OCT3) (Homo sapiens, UniProt O75751); experiment: Impedance-based MPP+ transport assay, HEK293–JumpIn–OCT3 cells; type: cell-based
T1 construct: expressed in transfected cells; host or cells: Jump In T-REx HEK293
T1 sequence (O75751 1-556): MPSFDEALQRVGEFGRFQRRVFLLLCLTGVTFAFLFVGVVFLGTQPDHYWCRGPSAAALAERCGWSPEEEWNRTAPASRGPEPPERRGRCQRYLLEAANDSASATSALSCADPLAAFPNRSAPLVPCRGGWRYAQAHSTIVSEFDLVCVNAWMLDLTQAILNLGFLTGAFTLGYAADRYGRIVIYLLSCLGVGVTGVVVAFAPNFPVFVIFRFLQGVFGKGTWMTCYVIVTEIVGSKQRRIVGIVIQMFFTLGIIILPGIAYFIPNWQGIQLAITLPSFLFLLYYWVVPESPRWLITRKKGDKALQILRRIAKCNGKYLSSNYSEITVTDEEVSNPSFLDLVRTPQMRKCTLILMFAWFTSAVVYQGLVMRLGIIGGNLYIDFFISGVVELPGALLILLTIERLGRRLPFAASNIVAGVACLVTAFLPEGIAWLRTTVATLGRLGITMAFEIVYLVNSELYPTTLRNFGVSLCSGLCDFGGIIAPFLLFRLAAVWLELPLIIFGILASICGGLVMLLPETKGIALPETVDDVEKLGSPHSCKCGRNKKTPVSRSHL
Experimental: In short, HEK293–JumpIn–OCT3 (SL22A3) cells were seeded (60.000 cells/well) on an E-plate with 1 μg/mL doxycycline and grown for 22 h using the xCELLigence real-time cell analyzer (RTCA) SP or MP system. […] Changes in cellular morphology were monitored for a total of 2 h.

SLC1A2 = SLC1A2 (Homo sapiens, UniProt P43004); experiment: Echo-MS assay, uptake of labeled glutamic acid in dox-induced HEK293–JumpIn–SLC1A2 (EAAT2) cells; type: cell-based; parameters: expressed in transfected cells; host or cells: Jump In T-REx HEK293
Experimental: Before the Echo-MS experiment, 15,000 cells per well were seeded into the wells of a 384-well plate (Beckman Coulter) and induced with […] doxycycline. […] The next day, compounds with stock solutions of 10 mM were first diluted to a final concentration of 90 µM before starting a 10-stage dilution series with a dilution factor of 1:3 with the CyBio FeliX pipetting robot. After the supernatant in the plate of the cell plate assay was discarded (BlueWasher, BlueCatBio), 10 µL of potassium/wash buffer including the compound dilution series was transferred by the pipetting robot (FeliX, CyBio), yielding a highest final concentration of 30 µM compound per well. After an incubation time of 15 min, 20 μL of L-Glutamic acid-13C5,15N with a concentration of 300 µM was added and incubated in an incubator at 37°C, 7.5% CO2, and 95% humidity. After 1 h incubation time, the wells were washed with 70 µL potassium buffer per well, and the supernatant was discarded before the precipitation process was started by adding 90 µL/well precipitation reagent (60% MeOH, 29% H2O, 11% formic acid) using a Multidrop Combi reagent dispenser (Thermo Fisher Scientific). After 30 min on the shaker at 500 rpm, the plates were centrifuged for 20 min at 2,000 rpm. Finally, 40 µL/well was transferred on qualified 384-well plates and then measured with Echo-MS/ADE-MS (Sciex). ADE-MS measurements were performed on an ADE-MS device (Sciex) operated with Sciex OS software (version 2.1.6.59781). A carrier solvent (60% acetonitrile, 39% H2O, and 1% formic acid) was used at a constant flow rate of 300 μL/min. For all samples, an ejection volume of 5 nL (2 droplets) and a repetition rate of 2.5 s/well were used. Triple Quad 6500+ was operated in a positive mode using the following settings: vaporizer temperature 450°C, spray voltage 5500 V, ion source gas 1: 90 psi, ion source gas 2: 70 psi, curtain gas 20 psi, CAD gas 9 psi, dwell time […], DP 35 V, EP 10 V, CE 14 V, and CXP 18 V. Data were processed with Sciex OS and further processed with Genedata Screener (version 19.0.9-Standard). Transporter inhibition by the compounds was tracked by analyzing the MS signal area values of uptaken labeled glutamic acid into the cell. The signal ratio of the reaction product to the respective standard was calculated to diminish variations ascribed to the sample preparation procedure or the MS readout. Average control values were calculated and set to 100% activity (high controls) and 0% activity (low controls), while the response values of compound-containing wells were normalized against the controls and expressed as the percentage of control (PoC).

[1] = phenotypic, read-out: pIC50 (act), SLC22A3 (converted)
[2] = target SLC1A2, assay EchoMS, read-out: pIC50 (act) (converted)
[3] = dox-induced HEK293–JumpIn–SLC1A2 cells, top conc. 30 µM, read-out: pIC50, SLC1A2, EchoMS (converted)

Chain of SLC1A2 (P43004 whole entry): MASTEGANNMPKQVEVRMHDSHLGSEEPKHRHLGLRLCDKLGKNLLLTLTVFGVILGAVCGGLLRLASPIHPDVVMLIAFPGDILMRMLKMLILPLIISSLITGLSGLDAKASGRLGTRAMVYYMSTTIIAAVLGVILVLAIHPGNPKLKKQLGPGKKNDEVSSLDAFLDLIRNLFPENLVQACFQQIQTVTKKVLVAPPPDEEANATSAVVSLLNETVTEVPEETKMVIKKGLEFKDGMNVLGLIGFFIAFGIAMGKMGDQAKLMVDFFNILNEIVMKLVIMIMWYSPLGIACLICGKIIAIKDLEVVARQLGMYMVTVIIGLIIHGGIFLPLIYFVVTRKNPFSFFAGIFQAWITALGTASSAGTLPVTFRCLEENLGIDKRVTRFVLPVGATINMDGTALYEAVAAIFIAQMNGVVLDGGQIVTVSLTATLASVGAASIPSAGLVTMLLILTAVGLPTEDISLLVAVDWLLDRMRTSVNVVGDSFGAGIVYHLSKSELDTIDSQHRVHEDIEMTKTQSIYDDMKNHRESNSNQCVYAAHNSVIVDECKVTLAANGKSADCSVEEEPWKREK

`CC(C)[C@H]1CN[C@H](C(=O)O)[C@H]1CC(=O)O` [Dihydrokainate] gave an IC50 (SLC22A3 (OCT3); [1]) greater than 10 µM and an IC50 (SLC1A2; [2]) greater than 30 µM.

For `CCOC(=O)N1CCC(=C2c3ccc(Cl)cc3CCc3cccnc32)CC1` [Loratadine], the IC50 (SLC22A3 (OCT3); [1]) was greater than 10 µM and the IC50 (SLC1A2; [2]) was greater than 30 µM.

`NC(C(=O)O)C(OCc1ccccc1)C(=O)O` (stereo not drawn) [Threo-beta-benzyloxyaspartic acid, Threo-beta-Benzyloxyaspartic acid] was tested, and the IC50 (SLC22A3 (OCT3); [1]) was greater than 10 µM, the IC50 (SLC1A2; [3]) was 7.94 µM and the IC50 (SLC1A2; [2]) was 8.6 µM.

Work on `CCNC(=O)/C=C/c1cccc(Br)c1` [Cinromide] yielded an IC50 (SLC22A3 (OCT3); [1]) greater than 10 µM and an IC50 (SLC1A2; [2]) greater than 30 µM.

With `COCCOc1cc(CC2CCN(CCc3ccc4c(c3)C(=O)CCO4)CC2)ccc1Br` [DSP-1053] the IC50 (SLC22A3 (OCT3); [1]) was greater than 10 µM and the IC50 (SLC1A2; [2]) was 11.7 µM.

With `N#Cc1ccc(Nc2cnccc2SCc2ccccc2C(=O)O)c2ccccc12` [KPH2f] the IC50 (SLC22A3 (OCT3); [1]) was greater than 10 µM and the IC50 (SLC1A2; [2]) was greater than 30 µM.

With `C=C(C)[C@H]1CN[C@H](C(=O)O)[C@H]1CC(=O)O` [Kainic acid] the IC50 (SLC22A3 (OCT3)) was greater than 10 µM and the IC50 (SLC1A2) was greater than 30 µM.

For `Nc1nc2ccc(OC(F)(F)F)cc2s1` [Riluzole], the IC50 (SLC1A2; [2]) was greater than 30 µM.

Work on `Cc1c(NC(=O)c2cc(C(N)=O)nc3cc(F)ccc23)c(C(F)(F)F)nn1Cc1ccc(C#N)cc1` [BAY-876] yielded an IC50 (SLC1A2; [2]) greater than 30 µM.

`Cc1ccsc1C(=CCCN1CCC[C@@H](C(=O)O)C1)c1sccc1C` [Tiagabine] showed an IC50 (SLC22A3 (OCT3); [1]) greater than 10 µM and an IC50 (SLC1A2; [2]) greater than 30 µM.

`CNCCCN1c2ccccc2CCc2ccccc21` [Desipramine] gave an IC50 (SLC22A3 (OCT3); [1]) greater than 10 µM and an IC50 (SLC1A2; [2]) greater than 30 µM.

Work on `CC1C(C#N)=C(N)OC2=C1C(=O)CC(c1cccc3ccccc13)C2` (stereo not shown) [UCPH-102] yielded an IC50 (SLC22A3 (OCT3); [1]) greater than 10 µM and an IC50 (SLC1A2; [2]) greater than 30 µM.

Work on `N[C@H](C(=O)O)[C@H](OCc1cccc(NC(=O)c2ccc(C(F)(F)F)cc2)c1)C(=O)O` [TFB-TBOA] yielded an IC50 (SLC22A3 (OCT3); [1]) greater than 10 µM, an IC50 (SLC1A2; [3]) of 0.00794 µM and an IC50 (SLC1A2; [2]) of 0.0088 µM.

Molecule `N[C@@H](CC(=O)Nc1ccc(Oc2cc(F)c(F)cc2Br)cc1)C(=O)O` [WAY-213613] has an IC50 (SLC22A3 (OCT3); [1]) greater than 10 µM, an IC50 (SLC1A2; [3]) of 0.251 µM and an IC50 (SLC1A2; [2]) of 0.26 µM.

`O=S(=O)(O)c1cc(N=C=S)ccc1/C=C/c1ccc(N=C=S)cc1S(=O)(=O)O` [DIDS] showed an IC50 (SLC22A3 (OCT3); [1]) greater than 10 µM and an IC50 (SLC1A2; [2]) greater than 30 µM.

For `Fc1ccc(C(OCCN2CCN(CCCc3ccccc3)CC2)c2ccc(F)cc2)cc1` [Vanoxerine (GBR12909), Vanoxerine], the IC50 (SLC22A3 (OCT3); [1]) was greater than 10 µM and the IC50 (SLC1A2; [2]) was 19.7 µM.

With `COc1ccc(C2C(C#N)=C(N)OC3=C2C(=O)CC(c2cccc4ccccc24)C3)cc1` (stereo not shown) [UCPH-101] the IC50 (SLC22A3 (OCT3); [1]) was greater than 10 µM and the IC50 (SLC1A2; [2]) was greater than 30 µM.

For `CN1C2CCC1CC(OC(c1ccccc1)c1ccccc1)C2` (stereo not shown) [Benzotropine], the IC50 (SLC22A3 (OCT3); [1]) was greater than 10 µM and the IC50 (SLC1A2; [2]) was greater than 30 µM.
